Test results taken from patent US8415469B2, “Compounds and methods for kinase modulation, and indications therefor” (Plexxikon Inc., priority 2005, dated 2013).

Columns and labels:
Format in all cases: biochemical
MAPKAPK2 = target: T1, MAPKAPK2 (Homo sapiens, UniProt P49137); test: Z'-Lyte FRET kinase assay (Invitrogen), MAPKAPK2; settings: read-out: IC50, activity toward kinase MAPKAPK2
T1 construct: purchased Invitrogen (assay run by Invitrogen)
Excerpt: The effect of potential modulators of kinase activity can be measured in a variety of different assays known in the art. For example, direct radiometric, indirect FRET or AlphaScreen assays may be used to assess the level of phosphorylation of a substrate in the presence of test compounds in order to determine the inhibitory affect of the compound on the kinase. Invitrogen (Carlsbad, Calif.) uses a FRET based assay for Btk, EGFR, EphB2, Flt3, lrak4, Kdr, MAP2K1, MAPKAPK2, PDGFRB, PKC theta, Stk6 and Yes. For these assays, compounds of the invention were screened by Invitrogen using Z′-Lyte™ kinase assay.
Briefly, the Invitrogen kinase assay involves use of a specific peptide substrate optimized for each kinase, containing a fluorophore at each end that make up the FRET pair. The peptide sensitivity to proteolytic cleavage depends on phosphorylation of the peptide. Non-phosphorylated peptide is cleaved by a protease while peptide phosphorylated by the kinase is not cleaved. Cleavage of the peptide disrupts the FRET between the donor (coumarin) and acceptor (fluorescein) fluorophores, resulting in an increase in the ratio of donor emission to acceptor emission. The emission ratio of coumarin to fluorescein is used to assess the reaction progress. The extent of phosphorylation is determined from the emission ratio, which is low when the kinase is active (phosphorylated peptide is not cleaved, FRET pair connected) or higher for inhibited kinase (non-phosphorylated peptide is cleaved, FRET pair separated). Thus, the assay involves a kinase reaction in the presence of varying concentrations of a given compound, a development reaction with site specific protease, and detection of the fluorescent emission ratio of coumarin and fluorscein. […] Reaction conditions for each kinase are determined to provide optimal reaction times, incubation temperature, kinase and ATP concentrations. Test samples are made up in 1× kinase buffer (50 mM HEPES pH 7.5, 50 mM MgCl2, 5 mM EGTA, 0.05% BRIJ-35) and compound at desired concentration prepared in DMSO such that the final DMSO is 1%. […] Typically, assay plates are prepared to 10 μl final volume per sample, adding 2.5 μl of compound at 4× the desired concentration in 4% DMSO (serial dilution of compound provides concentration curve), 5 μl of the desired kinase mixed with Z′-LYTE™ peptide substrate (2× in 2× kinase buffer, final peptide at 2 μM), and 2.5 μl of 4×ATP solution. All kinase except for MAP2K1 were at 10 μM ATP in the kinase reaction, while MAP2K1 was at 100 μM. Samples are mixed and the kinase reaction is incubated 1 hour at room temperature, after which 5 μl of development solution is added and mixed. After incubation for another 1 hour at room temperature, 5 μl of stop reagent is added to each sample and mixed. The fluorescence signals are measured to determine the emission ratio.

Abl = target: T2, Abl (Homo sapiens, UniProt P00519); test: AlphaScreen kinase assay, Abl; settings: read-out: activity toward kinase Abl, IC50
T2 construct: P1121. pET-SPEC BI-PTP Abl G227-V515-X; His6 (N); made in house; host or cells: E. coli (PTP1B co-expressed)
T2 sequence (P00519 with tags, fused parts or gaps): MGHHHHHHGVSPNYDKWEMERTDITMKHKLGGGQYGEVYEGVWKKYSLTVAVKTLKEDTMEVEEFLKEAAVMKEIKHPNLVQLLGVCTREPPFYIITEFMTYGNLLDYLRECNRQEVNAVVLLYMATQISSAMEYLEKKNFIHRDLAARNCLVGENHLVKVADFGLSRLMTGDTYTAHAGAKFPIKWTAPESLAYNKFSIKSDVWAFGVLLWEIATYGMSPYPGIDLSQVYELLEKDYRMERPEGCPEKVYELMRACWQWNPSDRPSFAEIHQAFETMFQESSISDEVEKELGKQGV
In short: (§1)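 Stock 20 mM compound in DMSO, diluted 1:3 serially to 8 final concentrations. Kinase phosphorylates biotinylated peptide; donor (streptavidin) and acceptor (anti-phospho antibody) beads then associate. Reduced acceptor emission indicates inhibition.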

B-Raf = target: T3, B-Raf (Homo sapiens, UniProt P15056); test: AlphaScreen kinase assay, B-Raf; settings: read-out: IC50, activity toward kinase B-Raf
T3 construct: purchased Upstate Biotechnology

B-Raf V600E = target: T4, B-Raf V600E (Homo sapiens, UniProt P15056, V600E); test: AlphaScreen kinase assay, B-Raf V600E; settings: read-out: IC50, activity toward kinase B-Raf V600E
T4 construct: P4254. pFastBacBD-CDC37 BRAF D437-K722-X, V600E; His6 with pFastBac HT leader (TEV site) (N); made in house; host or cells: Sf9 (baculovirus; chaperone CDC37 co-expressed)

FGFR1 = target: T5, FGFR1 (Homo sapiens, UniProt P11362, C488A/C584S); test: AlphaScreen kinase assay, FGFR1; settings: read-out: IC50, activity toward kinase FGFR
T5 construct: P1351.pET N6 BI-PTP FGFR A458-E765-X C488A, C584S; made in house; host or cells: E. coli (PTP1B co-expressed)

Flt1 = target: T6, Flt1 (Homo sapiens, UniProt P17948); test: AlphaScreen kinase assay, Flt1; settings: read-out: IC50, activity toward kinase Flt1
T6 construct: P1826.pETN6 BI-PTP FLT1 M799-D1165-X WT; His6 (N); made in house; host or cells: E. coli (PTP1B co-expressed)
T6 sequence (P17948 with tags, fused parts or gaps): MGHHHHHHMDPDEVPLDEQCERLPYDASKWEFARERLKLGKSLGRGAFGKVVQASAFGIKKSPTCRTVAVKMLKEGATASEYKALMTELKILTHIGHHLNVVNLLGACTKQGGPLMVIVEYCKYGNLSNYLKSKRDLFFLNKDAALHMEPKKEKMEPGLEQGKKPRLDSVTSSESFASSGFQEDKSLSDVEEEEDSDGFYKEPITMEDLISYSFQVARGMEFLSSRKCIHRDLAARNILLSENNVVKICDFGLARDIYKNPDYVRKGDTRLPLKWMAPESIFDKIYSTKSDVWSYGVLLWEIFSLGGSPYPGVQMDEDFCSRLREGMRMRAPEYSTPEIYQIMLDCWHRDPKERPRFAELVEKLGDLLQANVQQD

Flt4 = target: T7, Flt4 (Homo sapiens, UniProt P35916); test: AlphaScreen kinase assay, Flt4; settings: read-out: IC50, activity toward kinase Flt4
T7 construct: purchased ProQinase GmbH (Freiburg, Germany)
In short: as §1

Jnk1 = target: T8, Jnk1 (Homo sapiens, UniProt P45983); test: AlphaScreen kinase assay, Jnk1; settings: read-out: IC50, activity toward kinase Jnk1
T8 construct: purchased Upstate Biotechnology

Jnk2 = target: T9, Jnk2 (Homo sapiens, UniProt P45984); test: AlphaScreen kinase assay, Jnk2; settings: read-out: IC50, activity toward kinase Jnk2
T9 construct: purchased Roche Protein Expression Group (Indianapolis, IN)
In short: as §1

Jnk3 = target: T10, Jnk3 (Homo sapiens, UniProt P53779); test: AlphaScreen kinase assay, Jnk3; settings: read-out: IC50, activity toward kinase Jnk3
T10 construct: purchased Upstate Biotechnology

Kdr = target: T11, Kdr (Homo sapiens, UniProt P35968); test: Z'-Lyte FRET kinase assay (Invitrogen), Kdr; settings: read-out: IC50, activity toward kinase Kdr
T11 construct: purchased Invitrogen (assay run by Invitrogen)

Kit = target: T12, Kit (Homo sapiens, UniProt P10721); test: AlphaScreen kinase assay, Kit; settings: read-out: IC50, activity toward kinase Kit
T12 construct: P1332.N6 BI PTP KIT M552-K948-X COD; His6 (N); made in house; host or cells: E. coli (PTP1B co-expressed)

Ret = target: T13, Ret (Homo sapiens, UniProt P07949); test: AlphaScreen kinase assay, Ret; settings: read-out: IC50, activity toward kinase Ret
T13 construct: P1378.pET-SF BI-PTP RET H661-R1012 HIS; made in house
T13 sequence (P07949 with tags, fused parts or gaps): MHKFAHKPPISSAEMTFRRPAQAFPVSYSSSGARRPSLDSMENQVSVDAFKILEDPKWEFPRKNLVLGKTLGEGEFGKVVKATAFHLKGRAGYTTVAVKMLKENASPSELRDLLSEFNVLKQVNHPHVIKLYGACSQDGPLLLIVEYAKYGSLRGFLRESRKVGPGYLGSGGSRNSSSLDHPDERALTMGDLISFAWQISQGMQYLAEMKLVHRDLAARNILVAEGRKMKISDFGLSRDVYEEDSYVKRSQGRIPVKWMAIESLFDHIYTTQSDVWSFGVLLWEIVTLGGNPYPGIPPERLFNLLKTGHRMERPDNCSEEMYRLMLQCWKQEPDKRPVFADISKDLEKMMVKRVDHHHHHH

Src = target: T14, Src (Homo sapiens, UniProt P12931); test: AlphaScreen kinase assay, Src; settings: read-out: IC50, activity toward kinase Src
T14 construct: P1144. pET-N6 BI-PTP SRC V86-L536-X; made in house

Syk = Syk (Homo sapiens, UniProt P43405); test: AlphaScreen kinase assay, Syk; settings: read-out: IC50, activity toward kinase Syk
Excerpt: AlphaScreen assay was used to screen additional kinases. The assay is similarly dependent on the phosphorylation of a peptide substrate. In this assay, an antibody that recognizes phosphorylated substrate is bound to an acceptor bead. The peptide substrate is attached to biotin, which binds to a donor head that contains streptavidin. Thus phosphorylated substrate is bound by antibody and streptavidin, bringing the donor and acceptor heads into close proximity when kinase is not inhibited. The donor produces singlet oxygen which results in emission from the acceptor when they are in close proximity. Conversely, when kinase is inhibited, the donor and acceptor beads are not associated and the emission from the acceptor is reduced.
AlphaScreen assays were done using compounds dissolved in DMSO to a concentration of 20 mM. The compounds were diluted accordingly to the desired final concentrations in each sample well, using 1:3 serial dilution for a total of 8 concentration points.

T5 sequence (P11362 458-765 C488A/C584S): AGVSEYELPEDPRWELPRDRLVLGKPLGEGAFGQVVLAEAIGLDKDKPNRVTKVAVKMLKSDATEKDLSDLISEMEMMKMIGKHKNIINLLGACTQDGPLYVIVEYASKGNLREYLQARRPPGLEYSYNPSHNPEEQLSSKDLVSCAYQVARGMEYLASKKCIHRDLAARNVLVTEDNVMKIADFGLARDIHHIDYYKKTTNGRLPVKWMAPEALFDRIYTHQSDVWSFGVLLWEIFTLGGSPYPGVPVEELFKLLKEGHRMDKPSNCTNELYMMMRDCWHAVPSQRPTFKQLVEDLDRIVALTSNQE
T8 sequence (P45983 whole entry): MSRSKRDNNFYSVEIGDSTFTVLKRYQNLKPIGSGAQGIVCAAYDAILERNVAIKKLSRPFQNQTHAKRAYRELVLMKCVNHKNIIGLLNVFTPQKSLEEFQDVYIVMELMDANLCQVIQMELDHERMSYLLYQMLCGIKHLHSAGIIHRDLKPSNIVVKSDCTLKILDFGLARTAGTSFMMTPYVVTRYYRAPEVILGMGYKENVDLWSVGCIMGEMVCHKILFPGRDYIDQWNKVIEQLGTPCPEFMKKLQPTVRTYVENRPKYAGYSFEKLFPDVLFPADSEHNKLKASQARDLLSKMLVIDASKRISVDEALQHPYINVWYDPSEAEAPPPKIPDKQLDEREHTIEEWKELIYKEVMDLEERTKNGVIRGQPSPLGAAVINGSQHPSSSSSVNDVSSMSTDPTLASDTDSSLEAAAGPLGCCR
T12 sequence (P10721 with tags, fused parts or gaps): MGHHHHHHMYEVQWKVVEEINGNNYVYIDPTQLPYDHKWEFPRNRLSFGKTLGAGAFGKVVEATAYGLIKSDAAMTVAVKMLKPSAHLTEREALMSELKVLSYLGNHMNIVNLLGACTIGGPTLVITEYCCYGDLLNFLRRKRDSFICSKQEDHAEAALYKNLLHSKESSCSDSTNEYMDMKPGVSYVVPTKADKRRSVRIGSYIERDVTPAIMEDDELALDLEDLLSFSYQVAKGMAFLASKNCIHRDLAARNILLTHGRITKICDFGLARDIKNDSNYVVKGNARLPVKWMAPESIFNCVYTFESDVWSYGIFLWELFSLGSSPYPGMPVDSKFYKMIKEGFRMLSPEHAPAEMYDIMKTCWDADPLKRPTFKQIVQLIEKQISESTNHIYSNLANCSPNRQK
T14 sequence (P12931 with tags, fused parts or gaps): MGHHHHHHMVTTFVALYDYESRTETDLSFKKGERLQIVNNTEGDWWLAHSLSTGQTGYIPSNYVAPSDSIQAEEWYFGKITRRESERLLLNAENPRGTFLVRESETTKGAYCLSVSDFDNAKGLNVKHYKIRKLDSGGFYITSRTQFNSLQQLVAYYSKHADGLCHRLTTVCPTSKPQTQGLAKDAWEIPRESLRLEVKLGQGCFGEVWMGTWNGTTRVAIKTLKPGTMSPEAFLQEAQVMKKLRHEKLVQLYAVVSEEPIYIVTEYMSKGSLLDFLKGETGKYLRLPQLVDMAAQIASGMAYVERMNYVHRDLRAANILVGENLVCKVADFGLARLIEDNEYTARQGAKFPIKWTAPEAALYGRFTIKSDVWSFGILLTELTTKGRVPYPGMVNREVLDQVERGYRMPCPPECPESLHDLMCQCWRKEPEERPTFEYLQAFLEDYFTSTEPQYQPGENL
T4 sequence (P15056 with tags, fused parts or gaps V600E): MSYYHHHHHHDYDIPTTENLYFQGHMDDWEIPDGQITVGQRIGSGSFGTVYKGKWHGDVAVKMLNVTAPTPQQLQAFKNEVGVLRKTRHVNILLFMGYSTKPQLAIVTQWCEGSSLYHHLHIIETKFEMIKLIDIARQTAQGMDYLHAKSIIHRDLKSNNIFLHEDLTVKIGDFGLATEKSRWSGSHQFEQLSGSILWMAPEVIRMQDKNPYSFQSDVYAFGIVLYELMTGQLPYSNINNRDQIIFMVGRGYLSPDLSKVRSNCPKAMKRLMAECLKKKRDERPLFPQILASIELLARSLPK
T9 sequence (P45984 whole entry): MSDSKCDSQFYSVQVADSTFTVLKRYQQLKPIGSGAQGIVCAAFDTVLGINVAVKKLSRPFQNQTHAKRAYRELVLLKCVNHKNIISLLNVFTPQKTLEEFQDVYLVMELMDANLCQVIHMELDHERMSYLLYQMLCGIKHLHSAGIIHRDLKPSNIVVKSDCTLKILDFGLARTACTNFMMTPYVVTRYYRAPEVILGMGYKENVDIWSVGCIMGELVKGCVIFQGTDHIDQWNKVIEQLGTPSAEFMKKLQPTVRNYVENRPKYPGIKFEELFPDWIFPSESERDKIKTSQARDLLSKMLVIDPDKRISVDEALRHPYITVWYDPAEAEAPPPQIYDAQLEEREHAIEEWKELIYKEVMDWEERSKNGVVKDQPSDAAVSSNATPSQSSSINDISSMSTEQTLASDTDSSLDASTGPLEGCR
T10 sequence (P53779 whole entry): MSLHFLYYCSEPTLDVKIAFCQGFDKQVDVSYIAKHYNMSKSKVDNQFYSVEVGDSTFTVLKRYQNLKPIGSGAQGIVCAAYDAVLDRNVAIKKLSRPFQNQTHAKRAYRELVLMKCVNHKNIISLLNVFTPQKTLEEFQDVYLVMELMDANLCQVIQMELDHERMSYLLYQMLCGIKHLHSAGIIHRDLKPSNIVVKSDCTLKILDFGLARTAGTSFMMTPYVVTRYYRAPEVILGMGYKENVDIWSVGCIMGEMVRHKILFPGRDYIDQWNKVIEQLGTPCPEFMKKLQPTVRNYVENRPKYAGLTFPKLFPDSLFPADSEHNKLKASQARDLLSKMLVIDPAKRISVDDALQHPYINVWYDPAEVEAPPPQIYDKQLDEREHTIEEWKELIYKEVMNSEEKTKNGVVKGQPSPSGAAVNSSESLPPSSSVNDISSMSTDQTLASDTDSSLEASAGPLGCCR
T7 sequence (P35916 25-1363): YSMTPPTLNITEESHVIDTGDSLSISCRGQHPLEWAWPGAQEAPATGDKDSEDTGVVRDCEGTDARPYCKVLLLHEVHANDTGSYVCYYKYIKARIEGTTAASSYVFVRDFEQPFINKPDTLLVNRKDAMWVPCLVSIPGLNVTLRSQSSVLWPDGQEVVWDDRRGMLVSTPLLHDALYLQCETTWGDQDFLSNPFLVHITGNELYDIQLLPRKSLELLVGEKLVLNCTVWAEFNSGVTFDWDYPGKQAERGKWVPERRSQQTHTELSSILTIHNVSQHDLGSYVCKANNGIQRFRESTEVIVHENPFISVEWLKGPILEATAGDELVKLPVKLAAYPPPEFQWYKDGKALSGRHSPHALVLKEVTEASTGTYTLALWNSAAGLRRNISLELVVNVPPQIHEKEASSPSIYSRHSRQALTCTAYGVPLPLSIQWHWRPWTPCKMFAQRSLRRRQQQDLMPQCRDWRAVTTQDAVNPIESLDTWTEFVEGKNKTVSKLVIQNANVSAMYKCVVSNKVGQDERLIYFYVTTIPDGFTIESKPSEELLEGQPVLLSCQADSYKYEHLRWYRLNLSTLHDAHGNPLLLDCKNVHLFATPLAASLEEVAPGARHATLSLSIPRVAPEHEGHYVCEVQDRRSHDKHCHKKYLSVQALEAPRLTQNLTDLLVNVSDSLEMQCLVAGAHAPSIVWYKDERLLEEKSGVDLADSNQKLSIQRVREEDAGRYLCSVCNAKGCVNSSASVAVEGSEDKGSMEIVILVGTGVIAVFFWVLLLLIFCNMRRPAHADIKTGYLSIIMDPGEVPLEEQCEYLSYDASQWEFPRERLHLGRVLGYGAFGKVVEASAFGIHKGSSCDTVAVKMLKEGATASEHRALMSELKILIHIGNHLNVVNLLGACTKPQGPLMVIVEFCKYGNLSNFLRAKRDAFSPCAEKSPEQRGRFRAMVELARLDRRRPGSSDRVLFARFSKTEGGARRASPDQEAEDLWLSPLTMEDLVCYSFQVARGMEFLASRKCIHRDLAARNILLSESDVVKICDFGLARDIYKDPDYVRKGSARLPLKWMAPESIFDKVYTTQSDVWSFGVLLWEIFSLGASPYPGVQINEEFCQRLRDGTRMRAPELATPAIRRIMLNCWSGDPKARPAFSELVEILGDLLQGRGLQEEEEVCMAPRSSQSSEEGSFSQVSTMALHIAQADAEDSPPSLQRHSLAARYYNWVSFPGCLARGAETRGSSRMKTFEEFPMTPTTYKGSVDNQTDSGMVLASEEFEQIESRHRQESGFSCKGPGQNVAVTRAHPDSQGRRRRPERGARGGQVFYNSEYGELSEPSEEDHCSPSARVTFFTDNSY
T3 sequence (P15056 whole entry): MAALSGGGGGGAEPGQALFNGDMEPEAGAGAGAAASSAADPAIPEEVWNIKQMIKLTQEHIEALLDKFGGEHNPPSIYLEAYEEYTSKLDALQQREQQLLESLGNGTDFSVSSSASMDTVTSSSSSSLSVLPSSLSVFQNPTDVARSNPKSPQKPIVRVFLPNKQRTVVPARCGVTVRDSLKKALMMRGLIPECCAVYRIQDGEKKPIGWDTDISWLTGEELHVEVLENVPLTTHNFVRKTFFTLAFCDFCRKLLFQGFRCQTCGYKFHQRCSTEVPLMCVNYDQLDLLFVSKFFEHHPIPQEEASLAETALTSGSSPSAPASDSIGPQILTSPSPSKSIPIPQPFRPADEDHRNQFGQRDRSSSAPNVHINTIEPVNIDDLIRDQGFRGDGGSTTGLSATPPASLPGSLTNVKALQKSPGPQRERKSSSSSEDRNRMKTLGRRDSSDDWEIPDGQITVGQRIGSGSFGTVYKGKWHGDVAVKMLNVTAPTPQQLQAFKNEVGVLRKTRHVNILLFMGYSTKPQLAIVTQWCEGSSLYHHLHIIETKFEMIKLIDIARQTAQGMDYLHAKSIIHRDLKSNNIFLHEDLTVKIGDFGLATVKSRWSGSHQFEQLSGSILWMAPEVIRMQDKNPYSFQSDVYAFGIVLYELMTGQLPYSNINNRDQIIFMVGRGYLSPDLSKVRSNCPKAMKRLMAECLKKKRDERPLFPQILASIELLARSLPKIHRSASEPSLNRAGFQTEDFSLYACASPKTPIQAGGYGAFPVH

IC50 (MAPKAPK2) [µM] | IC50 (Abl) [µM] | IC50 (B-Raf) [µM] | IC50 (B-Raf V600E) [µM] | IC50 (FGFR1) [µM] | IC50 (Flt1) [µM] | IC50 (Flt4) [µM] | IC50 (Jnk1) [µM] | IC50 (Jnk2) [µM] | IC50 (Jnk3) [µM] | IC50 (Kdr) [µM] | IC50 (Kit) [µM] | IC50 (Ret) [µM] | IC50 (Src) [µM] | IC50 (Syk) [µM] | Structure (SMILES)
≤ 10 |  |  |  |  |  |  |  |  |  |  |  |  |  |  | COc1cccc(C(=O)c2c[nH]c3ncc(-c4ccc[nH]4)cc23)c1 [Compound P-0151]
 | ≤ 10 | ≤ 10 | ≤ 10 | ≤ 10 | ≤ 10 | ≤ 10 | ≤ 10 | ≤ 10 | ≤ 10 | ≤ 10 | ≤ 10 | ≤ 10 | ≤ 10 | ≤ 10 | O=C(c1cccc(O)c1)c1c[nH]c2ncc(-c3ccsc3)cc12 [Compound P-0448]
 | ≤ 10 | ≤ 10 | ≤ 10 | ≤ 10 |  | ≤ 10 | ≤ 10 | ≤ 10 | ≤ 10 |  | ≤ 10 | ≤ 10 | ≤ 10 | ≤ 10 | Cc1ccccc1C(=O)c1c[nH]c2ncc(-c3cccc(N)c3)cc12 [Compound P-0599]
